Test results as given in PubChem BioAssay (NCI).
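Where inhibition never reached the appropriate level, the endpoint shown equals the highest concentration tested. Otherwise, values were interpolated linearly from a five-concentration, 48-hour dose response in 96-well plates. TGI is the concentration that stops growth completely.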

What was measured:
Assay in all cases: NCI-60 cell line screen, 48 h
[1] = test system: NCI/ADR-RES ovarian
[2] = test system: MDA-N
[3] = test system: UACC-257 melanoma
[4] = test system: SK-MEL-2 melanoma
[5] = test system: HT29 colon
[6] = test system: DU-145 prostate
[7] = test system: T-47D breast
[8] = test system: SK-MEL-5 melanoma
[9] = test system: KM12 colon
[10] = test system: RXF 393 renal
[11] = test system: IGROV1 ovarian
[12] = test system: M14 melanoma
[13] = test system: OVCAR-5 ovarian
[14] = test system: TK-10 renal
[15] = test system: NCI-H226 lung
[16] = test system: U251 CNS
[17] = test system: SK-OV-3 ovarian
[18] = test system: SF-268 CNS
[19] = test system: PC-3 prostate
[20] = test system: SF-295 CNS
[21] = test system: CAKI-1 renal
[22] = test system: HCC-2998 colon
[23] = test system: OVCAR-8 ovarian
[24] = test system: MALME-3M melanoma
[25] = test system: MOLT-4 leukemia
[26] = test system: NCI-H460 lung
[27] = test system: 786-0 renal
[28] = test system: SK-MEL-28 melanoma
[29] = test system: MDA-MB-231 breast
[30] = test system: BT-549 breast
[31] = test system: NCI-H522 lung
[32] = test system: RPMI-8226 leukemia
[33] = test system: MDA-MB-435
[34] = test system: HS 578T breast
[35] = test system: OVCAR-3 ovarian
[36] = test system: COLO 205 colon
[37] = test system: HCT-116 colon
[38] = test system: OVCAR-4 ovarian
[39] = test system: SNB-19 CNS
[40] = test system: A549 NSCLC
[41] = test system: CCRF-CEM leukemia
[42] = test system: HOP-62 NSCLC
[43] = test system: UACC-62 melanoma
[44] = test system: EKVX NSCLC
[45] = test system: ACHN renal
[46] = test system: SF-539 CNS
[47] = test system: K-562 leukemia
[48] = test system: LOX IMVI melanoma
[49] = test system: NCI-H23 lung
[50] = test system: SN12C renal
[51] = test system: SNB-75 CNS
[52] = test system: SW-620 colon
[53] = test system: A498 renal
[54] = test system: HCT-15 colon
[55] = test system: HL-60(TB) leukemia
[56] = test system: UO-31 renal
[57] = test system: MCF7 breast

Compound CC(C)(CN1CCCCC1)C(/C=C/c1ccc(Cl)c(Cl)c1)=N\NC(=O)N/N=C(/C=C/c1ccc(Cl)c(Cl)c1)C(C)(C)CN1CCCCC1 has a TGI [1] of 3.32 µM, a TGI [2] of 2.75 µM and a TGI [3] of 3.08 µM. The TGI [4] was over 10 µM, the TGI [5] was 1.25 µM and the TGI [6] was 3.33 µM. The TGI [7] was 4.1 µM, the TGI [8] was 3.5 µM and the TGI [9] was 3.08 µM. For the same compound, the TGI [10] was 1.99 µM, the TGI [11] was 3.64 µM and the TGI [12] was 1.32 µM. The TGI [13] was 2.97 µM, the TGI [14] was 3.08 µM and the TGI [15] was 4.1 µM. The TGI [16] was 3.13 µM, the TGI [17] was 3.33 µM and the TGI [18] was 3.15 µM. It also gave a TGI [19] of over 10 µM, a TGI [20] of 3.07 µM and a TGI [21] of 3.16 µM. For the same compound, the TGI [22] was 3.12 µM, the TGI [23] was 3.38 µM and the TGI [24] was 2.95 µM. For the same compound, the TGI [25] was 8.74 µM, the TGI [26] was 2.77 µM and the TGI [27] was 2.8 µM. The TGI [28] was 3.16 µM, the TGI [29] was 3.71 µM and the TGI [30] was over 10 µM. The TGI [31] was 3.56 µM, the TGI [32] was 9 µM and the TGI [33] was 2.57 µM. It also gave a TGI [34] of 3.39 µM, a TGI [35] of 2.91 µM and a TGI [36] of 3.19 µM. The TGI [37] was 2.11 µM, the TGI [38] was 3.19 µM and the TGI [39] was 3.22 µM. The TGI [40] was 3.3 µM, the TGI [41] was 3.45 µM and the TGI [42] was 3.32 µM. The TGI [43] was 3.4 µM, the TGI [44] was 3.06 µM and the TGI [45] was 3.37 µM. The TGI [46] was 3.25 µM, the TGI [47] was 0.876 µM and the TGI [48] was 2.5 µM. The TGI [49] was 3.4 µM, the TGI [50] was 3.24 µM and the TGI [51] was 3.12 µM. The TGI [52] was 3.13 µM, the TGI [53] was 3.11 µM and the TGI [54] was 2.56 µM. It also gave a TGI [55] of 3.25 µM, a TGI [56] of 5.56 µM and a TGI [57] of 3.09 µM.
